Measured values: US12234224B2, “Pyrimidine and pyridine amine compounds and usage thereof in disease treatment” (Epigen Biosciences, Inc., priority 2021, dated 2025)

These compounds were tested against T1, Recombinant human p70S6K kinase (Homo sapiens, UniProt P23443) (assay: S6K Enzymatic Inhibition Assay (HotSpot kinase assay; called S6K binding assay in Table 2)). Details: IC50 class.
T1 construct: purchased ThermoFisher Scientific PV3815
Format: biochemical
Protocol: Enzymatic activity was determined using a commercial HotSpot kinase assay. Recombinant human p70S6K kinase was purchased from ThermoFisher Scientific (cat #PV3815). The substrate S6K/RSK2 peptide 2 was synthesized at Genscript [Piscataway, NJ]. In brief, the substrate was prepared in the reaction buffer [20 mM Hepes (pH 7.5), 10 mM MgCl2, 1 mM EGTA, 0.02% Brij35, 0.02 mg/mL BSA, 0.1 mM Na3VO4, 2 mM DTT, 1% DMSO]. Testing compounds were dissolved in 100% DMSO and a serial dilution was conducted in DMSO. The kinase at final concentration of 3 nM was added into the substrate solution and gently mixed. Test compounds were delivered at the appropriate concentrations into the kinase reaction mixture by Echo550, and incubated for 20 minutes at room temperature. ^33P-ATP (Specific activity 10 μCi/μL) was added into the reaction mixture to initiate the reaction. Assay plates were incubated for 2 hours at room temperature. The radioactivity was detected by filter-binding method. Kinase activity data is expressed as the percent remaining kinase activity in test samples compared to vehicle (DMSO) reactions. IC50 curves were plotted and IC50 values were calculated using the GraphPad Prism 4 program based on a sigmoidal dose-response equation.

T1 sequence (P23443 whole entry): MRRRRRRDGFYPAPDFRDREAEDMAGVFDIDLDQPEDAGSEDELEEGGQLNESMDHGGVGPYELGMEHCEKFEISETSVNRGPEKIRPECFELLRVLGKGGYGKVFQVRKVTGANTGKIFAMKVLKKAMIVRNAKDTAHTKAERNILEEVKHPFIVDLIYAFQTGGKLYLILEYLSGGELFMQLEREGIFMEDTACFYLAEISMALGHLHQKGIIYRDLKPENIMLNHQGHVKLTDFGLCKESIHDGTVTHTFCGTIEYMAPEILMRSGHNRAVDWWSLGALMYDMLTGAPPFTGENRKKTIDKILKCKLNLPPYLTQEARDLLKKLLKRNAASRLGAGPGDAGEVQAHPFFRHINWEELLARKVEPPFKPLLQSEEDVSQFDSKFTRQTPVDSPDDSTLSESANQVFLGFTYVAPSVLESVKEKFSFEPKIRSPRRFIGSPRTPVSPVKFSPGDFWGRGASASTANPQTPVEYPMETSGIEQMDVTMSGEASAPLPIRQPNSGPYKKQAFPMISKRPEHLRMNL

IC50 [nM] | Compound
50 to 500 | CC(c1cccc(C(F)(F)F)c1)n1cc(-c2ncnc(N)c2-c2ccc(Cl)cc2)cn1 (racemic) [Example 3, (±)-5-(p-Chlorophenyl)-6-(1-{1-[m-(trifluoromethyl)phenyl]ethyl}-1H-pyrazol-4-yl)-4-pyrimidinylamine]
< 50 | Nc1ncnc(-c2cnn(C(CO)c3ccccc3)c2)c1-c1ccc(Cl)cc1 (racemic) [Example 5, (±)-2-{4-[6-Amino-5-(p-chlorophenyl)-4-pyrimidinyl]-1H-pyrazol-1-yl}-2-phenylethanol]
< 50 | NCC(c1ccccc1)n1cc(-c2ncnc(N)c2-c2ccc(Cl)cc2)cn1 (racemic) [Example 6, (±)-6-[1-(2-Amino-1-phenylethyl)-1H-pyrazol-4-yl]-5-(p-chlorophenyl)-4-pyrimidinamine]
< 50 | NC(=O)C(c1ccccc1)n1cc(-c2ncnc(N)c2-c2ccc(Cl)cc2)cn1 (racemic) [Example 8, (±)-{4-[6-Amino-5-(p-chlorophenyl)-4-pyrimidinyl]-1H-pyrazol-1-yl}phenylacetamide]
50 to 500 | CN(C)C(=O)C(c1ccccc1)n1cc(-c2ncnc(N)c2-c2ccc(Cl)cc2)cn1 (racemic) [Example 9, (±)-N,N-Dimethyl{4-[6-amino-5-(p-chlorophenyl)-4-pyrimidinyl]-1H-pyrazol-1-yl}phenylacetamide]
< 50 | Nc1ncnc(-c2cnn(Cc3ccccc3)c2)c1-c1ccc(Cl)cc1 [Example 1, 6-(1-Benzyl-1H-pyrazol-4-yl)-5-(p-chlorophenyl)-4-pyrimidinylamine]
50 to 500 | Cn1cc(-c2ncnc(N)c2-c2ccc(Cl)cc2)cn1 [Example 2, 5-(p-Chlorophenyl)-6-(1-methyl-1H-pyrazol-4-yl)-4-pyrimidinylamine]
< 50 | Nc1ncnc(-c2cnn(Cc3ccc(C(F)(F)F)cc3)c2)c1-c1ccc(Cl)cc1 [Example 4, 5-(p-Chlorophenyl)-6-(1-{[p-(trifluoromethyl)phenyl]methyl}-1H-pyrazol-4-yl)-4-pyrimidinylamine]
< 50 | C=C(c1ccccc1)n1cc(-c2ncnc(N)c2-c2ccc(Cl)cc2)cn1 [Example 7, 5-(p-Chlorophenyl)-6-[1-(1-phenylethenyl)-1H-pyrazol-4-yl]-4-pyrimidinylamine]
50 to 500 | Nc1ncnc(-c2cnn(-c3ccccc3)c2)c1-c1ccc(Cl)cc1 [Example 10, 5-(p-Chlorophenyl)-6-(1-phenyl-1H-pyrazol-4-yl)-4-pyrimidinylamine]
50 to 500 | Cc1ccccc1-n1cc(-c2ncnc(N)c2-c2ccc(Cl)cc2)cn1 [Example 11, 5-(p-Chlorophenyl)-6-[1-(o-tolyl)-1H-pyrazol-4-yl]-4-pyrimidinylamine]
500 to 10000 | Nc1ncnc(-c2cnn(-c3cccc(Cl)c3)c2)c1-c1ccc(Cl)cc1 [Example 12, 5-(p-Chlorophenyl)-6-[1-(m-chlorophenyl)-1H-pyrazol-4-yl]-4-pyrimidinylamine]
500 to 10000 | Nc1ncnc(-c2cnn(-c3cccc(C(F)(F)F)c3)c2)c1-c1ccc(Cl)cc1 [Example 13, 5-(p-Chlorophenyl)-6-{1-[m-(trifluoromethyl)phenyl]-1H-pyrazol-4-yl}-4-pyrimidinylamine]
500 to 10000 | Nc1ncnc(-c2cnn(C3CCCCO3)c2)c1-c1ccc(Cl)cc1 (centres unmarked) [Example 14, 5-(p-Chlorophenyl)-6-[1-(tetrahydro-2H-pyran-2-yl)-1H-pyrazol-4-yl]-4-pyrimidinylamine]
< 50 | Nc1ncnc(-c2cnn(Cc3cccc(F)c3)c2)c1-c1ccc(Cl)cc1 [Example 15, 5-(p-Chlorophenyl)-6-{1-[(m-fluorophenyl)methyl]-1H-pyrazol-4-yl}-4-pyrimidinylamine]
< 50 | Nc1ncnc(-c2cnn(Cc3ccc(Cl)cc3)c2)c1-c1ccc(Cl)cc1 [Example 16, 5-(p-Chlorophenyl)-6-{1-[(p-chlorophenyl)methyl]-1H-pyrazol-4-yl}-4-pyrimidinylamine]
50 to 500 | Nc1ncnc(-c2cnn(Cc3ccccc3C(F)(F)F)c2)c1-c1ccc(Cl)cc1 [Example 17, 5-(p-Chlorophenyl)-6-(1-{[o-(trifluoromethyl)phenyl]methyl}-1H-pyrazol-4-yl)-4-pyrimidinylamine]
< 50 | Nc1ncnc(-c2cnn(Cc3ccc(F)cc3)c2)c1-c1ccc(Cl)cc1 [Example 18, 5-(p-Chlorophenyl)-6-{1-[(p-fluorophenyl)methyl]-1H-pyrazol-4-yl}-4-pyrimidinylamine]
< 50 | Nc1ncnc(-c2cnn(Cc3ccc(F)cc3F)c2)c1-c1ccc(Cl)cc1 [Example 19, 5-(p-Chlorophenyl)-6-{1-[(2,4-difluorophenyl)methyl]-1H-pyrazol-4-yl}-4-pyrimidinylamine]
< 50 | Nc1ncnc(-c2cnn(Cc3ccc(OC(F)(F)F)cc3)c2)c1-c1ccc(Cl)cc1 [Example 20, 5-(p-Chlorophenyl)-6-{1-[(p-trifluoromethoxyphenyl)methyl]-1H-pyrazol-4-yl}-4-pyrimidinylamine]
< 50 | Nc1ncnc(-c2cnn(Cc3ccccc3F)c2)c1-c1ccc(Cl)cc1 [Example 21, 5-(p-Chlorophenyl)-6-{1-[(o-fluorophenyl)methyl]-1H-pyrazol-4-yl}-4-pyrimidinylamine]
500 to 10000 | Nc1ncnc(-n2cc(C(=O)c3ccccc3)cn2)c1-c1ccc(Cl)cc1 [Example 22, {1-[6-Amino-5-(p-chlorophenyl)-4-pyrimidinyl]-1H-pyrazol-4-yl}phenylmethanone]
50 to 500 | Nc1ncnc(-n2cc(Cc3ccccc3)cn2)c1-c1ccc(Cl)cc1 [Example 23, 6-(4-Benzyl-1H-pyrazol-1-yl)-5-(p-chlorophenyl)-4-pyrimidinylamine]
< 50 | COc1ccc(-c2c(N)ncnc2-c2cnn(Cc3ccc(C(F)(F)F)cc3)c2)cc1 [Example 24, 5-(p-Methoxyphenyl)-6-(1-{[p-(trifluoromethyl)phenyl]methyl}-1H-pyrazol-4-yl)-4-pyrimidinylamine]
< 50 | Nc1ncnc(-c2cnn(Cc3ccc(C(F)(F)F)cc3)c2)c1-c1ccc(F)cc1 [Example 25, 5-(p-Fluorophenyl)-6-(1-{[p-(trifluoromethyl)phenyl]methyl}-1H-pyrazol-4-yl)-4-pyrimidinylamine]
500 to 10000 | CS(=O)(=O)c1ccc(-c2c(N)ncnc2-c2cnn(Cc3ccc(C(F)(F)F)cc3)c2)cc1 [Example 26, 5-[p-(Methylsulfonyl)phenyl]-6-(1-{[p-(trifluoromethyl)phenyl]methyl}-1H-pyrazol-4-yl)-4-pyrimidinylamine]
< 50 | Nc1ncnc(-c2cnn(Cc3ccc(C(F)(F)F)cc3)c2)c1-c1ccc(Cl)c(F)c1 [Example 27, 5-(4-Chloro-3-fluorophenyl)-6-(1-{[p-(trifluoromethyl)phenyl]methyl}-1H-pyrazol-4-yl)-4-pyrimidinylamine]
500 to 10000 | Nc1ncnc(-c2cnn(Cc3ccc(C(F)(F)F)cc3)c2)c1-c1ccc(Cl)c(Cl)c1 [Example 28, 5-(3,4-Dichlorophenyl)-6-(1-{[p-(trifluoromethyl)phenyl]methyl}-1H-pyrazol-4-yl)-4-pyrimidinylamine]
500 to 10000 | COc1cc(-c2c(N)ncnc2-c2cnn(Cc3ccc(C(F)(F)F)cc3)c2)ccc1Cl [Example 29, 5-(4-Chloro-3-methoxyphenyl)-6-(1-{[p-(trifluoromethyl)phenyl]methyl}-1H-pyrazol-4-yl)-4-pyrimidinylamine]
